According to ChEMBL document CHEMBL4017540, “Synthesis of Potent and Selective Inhibitors of Aldo-Keto Reductase 1B10 and Their Efficacy against Proliferation, Metastasis, and Cisplatin Resistance of Lung Cancer Cells” (J Med Chem, 2017):
Changes are numbered by the printed parent chain.

Tests used:
[1] = molecular target: T1, Aldo-keto reductase family 1 member B1 (Homo sapiens, UniProt P15121); assay: Inhibition of recombinant human AKR1B1 using pyridine-3-aldehyde as substrate
[2] = molecular target: T2, Aldo-keto reductase family 1 member B10 (Homo sapiens, UniProt O60218); assay: Inhibition of recombinant human AKR1B10 using pyridine-3-aldehyde as substrate
T2 sequence (O60218 whole entry): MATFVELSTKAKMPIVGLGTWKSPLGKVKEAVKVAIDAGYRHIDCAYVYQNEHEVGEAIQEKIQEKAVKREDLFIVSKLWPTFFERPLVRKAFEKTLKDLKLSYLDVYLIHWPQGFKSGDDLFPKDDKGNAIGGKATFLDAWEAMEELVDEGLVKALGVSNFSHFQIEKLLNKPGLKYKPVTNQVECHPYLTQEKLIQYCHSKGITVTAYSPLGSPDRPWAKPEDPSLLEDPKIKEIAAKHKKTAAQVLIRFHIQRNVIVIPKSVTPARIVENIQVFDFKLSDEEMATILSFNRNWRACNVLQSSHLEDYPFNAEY

[3] = molecular target: T3, Aldo-keto reductase family 1 member C1 (Homo sapiens, UniProt Q04828); assay: Inhibition of recombinant human AKR1C1 using S-tetralol as substrate
T3 sequence (Q04828 whole entry): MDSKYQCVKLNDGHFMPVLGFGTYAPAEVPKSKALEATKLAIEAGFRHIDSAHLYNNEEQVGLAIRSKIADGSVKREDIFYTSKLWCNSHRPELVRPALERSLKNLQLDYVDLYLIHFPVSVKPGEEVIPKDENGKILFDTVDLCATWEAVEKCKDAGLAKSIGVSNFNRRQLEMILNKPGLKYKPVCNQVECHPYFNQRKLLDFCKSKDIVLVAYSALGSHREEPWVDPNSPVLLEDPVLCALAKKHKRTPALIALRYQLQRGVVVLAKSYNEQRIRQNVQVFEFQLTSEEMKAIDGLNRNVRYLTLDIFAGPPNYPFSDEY

[4] = molecular target: T2, Aldo-keto reductase family 1 member B10; assay: Competitive inhibition of recombinant human AKR1B10 in presence of geraniol as substrate by Lineweaver-Burk plot method
[5] = molecular target: T4, Carbonyl reductase [NADPH] 1 (Homo sapiens, UniProt P16152); assay: Inhibition of recombinant human CBR1 using isatin as substrate
T4 sequence (P16152 whole entry): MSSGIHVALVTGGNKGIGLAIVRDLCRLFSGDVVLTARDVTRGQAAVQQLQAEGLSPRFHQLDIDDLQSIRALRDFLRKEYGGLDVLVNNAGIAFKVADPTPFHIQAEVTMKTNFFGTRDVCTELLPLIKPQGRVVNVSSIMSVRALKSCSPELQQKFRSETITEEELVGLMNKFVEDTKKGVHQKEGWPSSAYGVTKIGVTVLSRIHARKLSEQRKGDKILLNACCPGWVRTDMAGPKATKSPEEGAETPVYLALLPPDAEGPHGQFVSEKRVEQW

[6] = Competitive inhibition of recombinant human AKR1B10 Trp220Tyr mutant in presence of geraniol as substrate by Lineweaver-Burk plot method
[7] = Competitive inhibition of recombinant human AKR1B10 Val301Leu mutant in presence of geraniol as substrate by Lineweaver-Burk plot method
[8] = Competitive inhibition of recombinant human AKR1B10 Lys125Leu mutant in presence of geraniol as substrate by Lineweaver-Burk plot method
[9] = molecular target: T5, Aldo-keto reductase family 1 member C4 (Homo sapiens, UniProt P17516); assay: Inhibition of recombinant human AKR1C4 using S-tetralol as substrate
T5 sequence (P17516 whole entry): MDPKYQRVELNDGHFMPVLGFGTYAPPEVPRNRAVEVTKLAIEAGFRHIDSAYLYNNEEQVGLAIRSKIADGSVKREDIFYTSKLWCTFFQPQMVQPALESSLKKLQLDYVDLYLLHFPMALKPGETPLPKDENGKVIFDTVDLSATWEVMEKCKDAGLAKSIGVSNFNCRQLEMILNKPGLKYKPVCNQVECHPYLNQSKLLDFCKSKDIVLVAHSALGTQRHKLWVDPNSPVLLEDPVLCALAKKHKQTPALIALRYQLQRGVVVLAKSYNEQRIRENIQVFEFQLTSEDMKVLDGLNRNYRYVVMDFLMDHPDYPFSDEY

[10] = Competitive inhibition of recombinant human AKR1B10 Gln303Ser mutant in presence of geraniol as substrate by Lineweaver-Burk plot method
[11] = molecular target: T6, Aldo-keto reductase family 1 member C3 (Homo sapiens, UniProt P42330); assay: Inhibition of recombinant human AKR1C3 using S-tetralol as substrate
T6 sequence (P42330 whole entry): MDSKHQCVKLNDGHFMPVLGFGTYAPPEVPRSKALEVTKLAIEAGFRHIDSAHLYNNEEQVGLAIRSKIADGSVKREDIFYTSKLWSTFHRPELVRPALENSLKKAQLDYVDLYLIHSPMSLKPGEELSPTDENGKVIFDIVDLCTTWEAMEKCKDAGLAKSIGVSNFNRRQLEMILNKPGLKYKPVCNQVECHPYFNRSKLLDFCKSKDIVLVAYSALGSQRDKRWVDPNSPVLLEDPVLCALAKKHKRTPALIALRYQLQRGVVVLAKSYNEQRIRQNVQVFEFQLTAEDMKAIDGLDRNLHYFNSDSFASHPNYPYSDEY

[12] = molecular target: T7, Aldo-keto reductase family 1 member A1 (Homo sapiens, UniProt P14550); assay: Inhibition of recombinant human AKR1A1 using pyridine-3-aldehyde as substrate
T7 sequence (P14550 whole entry): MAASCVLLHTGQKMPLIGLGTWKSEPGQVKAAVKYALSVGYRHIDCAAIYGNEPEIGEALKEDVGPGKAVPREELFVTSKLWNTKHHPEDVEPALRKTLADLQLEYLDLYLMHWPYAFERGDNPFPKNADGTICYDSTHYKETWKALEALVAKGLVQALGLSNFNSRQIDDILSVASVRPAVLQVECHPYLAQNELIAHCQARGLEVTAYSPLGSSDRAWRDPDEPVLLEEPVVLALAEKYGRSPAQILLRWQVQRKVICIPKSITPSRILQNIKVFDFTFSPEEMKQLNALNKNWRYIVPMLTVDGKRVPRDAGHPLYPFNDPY

[13] = molecular target: T8, Aldo-keto reductase family 1 member C2 (Homo sapiens, UniProt P52895); assay: Inhibition of recombinant human AKR1C2 using S-tetralol as substrate
T8 sequence (P52895 whole entry): T3 sequence (Q04828 whole entry) with T38V, R47H, L54V, C87S, V151M, R170H, Q172L

[14] = molecular target: T1, Aldo-keto reductase family 1 member B1; assay: Inhibition of human recombinant AKR1B1 (1 to 316 residues) expressed in Escherichia coli using pyridine-3-aldehyde as substrate
[15] = molecular target: T2, Aldo-keto reductase family 1 member B10; assay: Inhibition of human recombinant AKR1B10 (1 to 316 residues) expressed in Escherichia coli using pyridine-3-aldehyde as substrate
[16] = molecular target: T1, Aldo-keto reductase family 1 member B1; assay: Inhibition of AKR1B1 (unknown origin)
[17] = molecular target: T2, Aldo-keto reductase family 1 member B10; assay: Inhibition of AKR1B10 (unknown origin)
[18] = molecular target: T1, Aldo-keto reductase family 1 member B1; assay: Inhibition of recombinant human AKR1B1 using pyridine-3-aldehyde as substrate by fluorescence assay
[19] = molecular target: T2, Aldo-keto reductase family 1 member B10; assay: Inhibition of recombinant human intestinal N-terminal 6-His-tagged AKR1B10 expressed in Escherichia coli BL21 (DE3) pLysS cells using pyridine-3-aldehyde as substrate by fluorescence assay

SMILES	IC50 [1]	IC50 [2]	also measured
O=C(NCCc1ccc(O)cc1)c1cc2ccc(O)cc2oc1=O	98 nM	20 nM	–
O=C(NCCCCc1ccc(O)cc1)c1cc2ccc(O)cc2oc1=O	314 nM	11 nM	–
O=C(NCCCc1ccc(O)cc1)c1cc2cccc(O)c2oc1=O	9500 nM	1500 nM	–
O=C(NCCCc1ccc(O)cc1)c1cc2ccc(O)cc2oc1=O	204 nM	4.2 nM	IC50 [3]: 0.95 µM; Ki [4]: 2.3 nM; IC50 [5]: 4200 nM; Ki [6]: 14 nM; Ki [7]: 9.8 nM; Ki [8]: 6.9 nM; IC50 [9]: 820 nM; Ki [10]: 2.5 nM; IC50 [11]: 1600 nM; IC50 [12]: 1500 nM; IC50 [13]: 970 nM
C[C@@]12CCC[C@H]1[C@@H]1C[C@@H](O)[C@@]3(O)C[C@@H](O)CC[C@]3(CO)[C@H]1CC2	–	–	IC50 [14]: > 100 µM; IC50 [15]: 830 nM
COc1ccc(CCCNC(=O)c2cc3ccc(O)cc3oc2=O)cc1	390 nM	11 nM	–
O=C(NCCCc1ccc(F)cc1)c1cc2ccc(O)cc2oc1=O	277 nM	3.5 nM	IC50 [3]: 12 µM; IC50 [5]: 1100 nM; IC50 [9]: 350 nM; IC50 [11]: 470 nM; IC50 [12]: 1700 nM; IC50 [13]: 610 nM
O=C(NCCCc1ccc(O)cc1)c1cc2ccccc2oc1=O	> 10000 nM	2700 nM	–
O=C(/C=C/c1ccc(O)cc1)CC(=O)/C=C/c1ccc(O)cc1 [BISDEMETHOXYCURCUMIN]	–	–	IC50 [16]: 5.1 µM; IC50 [17]: 60 nM
C[C@H](CCC(=O)O)[C@H]1CC[C@H]2[C@@H]3CC[C@@H]4C[C@@H](O)CC[C@]4(C)[C@H]3CC[C@]12C [ISOLITHOCHOLIC ACID]	–	–	IC50 [18]: 6.9 µM; IC50 [19]: 27 nM

The next lines start with results.

IC50 [1]	IC50 [2]	SMILES	also measured
340 nM	6 nM	O=C(NCCCc1cccc(F)c1)c1cc2ccc(O)cc2oc1=O	–
200 nM	7 nM	Cc1ccc(CCCNC(=O)c2cc3ccc(O)cc3oc2=O)cc1	–
320 nM	7.8 nM	O=C(NCCCc1cc(F)cc(F)c1)c1cc2ccc(O)cc2oc1=O	–
180 nM	8.3 nM	O=C(NCCCc1cccc(O)c1)c1cc2ccc(O)cc2oc1=O	–
15 nM	7.5 nM	COc1ccc(/N=c2\oc3cc(O)ccc3cc2C(=O)NCCCc2cccc(O)c2)cc1	–
220 nM	6.4 nM	O=C(NCCCc1ccccc1O)c1cc2ccc(O)cc2oc1=O	–
